# Assays:
# Tas2r105 [1] = biological target: T1, Tas2r105 (Mus musculus, UniProt Q9JKT4); experiment: calcium mobilization in transfected HEK293; type: cell-based; conditions: agonist, Gα16gust44 co-expressed
# T1 construct: coding region amplified from WT mouse taste bud cDNA; N-terminal tag of first 45 residues of rat somatostatin receptor 3; pcDNA3.1/Zeo(+); transient in HEK293 (PEAKrapid) with chimeric reporter G protein Galpha16gust44
# T1 sequence (Q9JKT4 1-300): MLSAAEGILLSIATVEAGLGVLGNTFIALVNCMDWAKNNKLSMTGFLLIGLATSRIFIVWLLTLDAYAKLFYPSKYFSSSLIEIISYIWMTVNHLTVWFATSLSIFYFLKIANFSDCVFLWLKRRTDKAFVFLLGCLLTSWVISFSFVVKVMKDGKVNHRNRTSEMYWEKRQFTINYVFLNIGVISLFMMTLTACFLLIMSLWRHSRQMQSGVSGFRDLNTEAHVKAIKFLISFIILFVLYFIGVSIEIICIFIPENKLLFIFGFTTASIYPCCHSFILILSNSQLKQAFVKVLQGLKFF
# Tas2r105 [2] = biological target: T1, Tas2r105; experiment: calcium mobilization in transfected HEK293, fluorescence dose-response; type: cell-based
smiles,measurement,setting,value
CCCCCCCC(=O)N[C@H]1CCOC1=O [C8-HSL],calcium mobilization in transfected HEK293,Tas2r105 [1]; synthetic compound,two synthetic HSLs: 3-oxo-C12-HSL and C8-HSL
CCCCCCCCCC(=O)CC(=O)N[C@H]1CCOC1=O [LasI],EC50,Tas2r105 [2],8.9 µM
CC[N+](CC)(CC(=O)Nc1c(C)cccc1C)Cc1ccccc1 [denatonium benzoate],calcium mobilization in transfected HEK293,Tas2r105 [1],Tas2r105 was also activated by the bitter compounds denatonium benzoate (Den)

# — PMC6776549, “Gingival solitary chemosensory cells are immune sentinels for periodontitis” (Nature Communications, 2019)
